# Values quoted from earlier work as cited in patent publication US20060234297A1, “Screening method” (priority 2003, published 2006).
# Legend:
# [1] = tested on: mouse macrophages stimulated with phorbol ester or tumor necrosis factor (TNF-α)
# [2] = tested on: progression of arteriosclerosis; conditions: clinical study
smiles,measurement,setting,value
CCOC(=O)C1=C(C)NC(C)=C(C(=O)OCC)C1c1ccccc1/C=C/C(=O)OC(C)(C)C [lacidipine],MMP-9 secretion and production,[1],suppressed MMP-9 secretion and production
same,effect on the progression of arteriosclerosis,[2],suppressive effect on the progression of arteriosclerosis
